Reference: PubChem BioAssay (NCI)
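Assay format: 96-well plates, 48-hour exposure. At the TGI there is no net growth.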

Assays:
Experiment in all cases: NCI tumour cell line growth inhibition, 48 h
[1] = system: T-47D breast
[2] = system: HL-60(TB) leukemia
[3] = system: TK-10 renal
[4] = system: KM12 colon
[5] = system: CAKI-1 renal
[6] = system: OVCAR-4 ovarian
[7] = system: MALME-3M melanoma
[8] = system: SNB-75 CNS
[9] = system: HCT-116 colon
[10] = system: RXF 393 renal
[11] = system: A498 renal
[12] = system: HT29 colon
[13] = system: SF-295 CNS
[14] = system: DU-145 prostate
[15] = system: SNB-19 CNS
[16] = system: OVCAR-8 ovarian
[17] = system: MDA-MB-231 breast
[18] = system: OVCAR-3 ovarian
[19] = system: IGROV1 ovarian
[20] = system: SW-620 colon
[21] = system: OVCAR-5 ovarian
[22] = system: SK-MEL-28 melanoma
[23] = system: A549 NSCLC
[24] = system: HS 578T breast
[25] = system: SF-268 CNS
[26] = system: NCI-H226 lung
[27] = system: CCRF-CEM leukemia
[28] = system: SF-539 CNS
[29] = system: UACC-257 melanoma
[30] = system: MCF7 breast
[31] = system: HCC-2998 colon
[32] = system: BT-549 breast
[33] = system: SK-MEL-5 melanoma
[34] = system: EKVX NSCLC
[35] = system: SN12C renal
[36] = system: M14 melanoma
[37] = system: U251 CNS
[38] = system: HOP-62 NSCLC
[39] = system: UO-31 renal
[40] = system: LOX IMVI melanoma
[41] = system: K-562 leukemia
[42] = system: 786-0 renal
[43] = system: NCI-H460 lung
[44] = system: NCI/ADR-RES ovarian
[45] = system: HCT-15 colon
[46] = system: SK-MEL-2 melanoma
[47] = system: COLO 205 colon
[48] = system: MDA-MB-435
[49] = system: NCI-H23 lung
[50] = system: HOP-92 NSCLC
[51] = system: ACHN renal
[52] = system: MDA-N
[53] = system: RPMI-8226 leukemia
[54] = system: UACC-62 melanoma
[55] = system: SK-OV-3 ovarian
[56] = system: NCI-H522 lung
[57] = system: MOLT-4 leukemia
[58] = system: SR leukemia
[59] = system: PC-3 prostate

Compound: N#Cc1c(-c2ccccc2)nc(-c2ccccc2)sc1=S
- TGI [1]: > 100 µM
- TGI [2]: > 100 µM
- TGI [3]: > 100 µM
- TGI [4]: > 100 µM
- TGI [5]: > 100 µM
- TGI [6]: > 100 µM
- TGI [7]: > 100 µM
- TGI [8]: > 100 µM
- TGI [9]: > 100 µM
- TGI [10]: > 100 µM
- TGI [11]: > 100 µM
- TGI [12]: > 100 µM
- TGI [13]: > 100 µM
- TGI [14]: > 100 µM
- TGI [15]: > 100 µM
- TGI [16]: > 100 µM
- TGI [17]: > 100 µM
- TGI [18]: > 100 µM
- TGI [19]: > 100 µM
- TGI [20]: > 100 µM
- TGI [21]: > 100 µM
- TGI [22]: > 100 µM
- TGI [23]: > 100 µM
- TGI [24]: > 100 µM
- TGI [25]: > 100 µM
- TGI [26]: > 100 µM
- TGI [27]: > 100 µM
- TGI [28]: > 100 µM
- TGI [29]: > 100 µM
- TGI [30]: > 100 µM
- TGI [31]: > 100 µM
- TGI [32]: > 100 µM
- TGI [33]: > 100 µM
- TGI [34]: > 100 µM
- TGI [35]: > 100 µM
- TGI [36]: > 100 µM
- TGI [37]: > 100 µM
- TGI [38]: > 100 µM
- TGI [39]: > 100 µM
- TGI [40]: > 100 µM
- TGI [41]: > 100 µM
- TGI [42]: > 100 µM
- TGI [43]: > 100 µM
- TGI [44]: > 100 µM
- TGI [45]: > 100 µM
- TGI [46]: > 100 µM
- TGI [47]: > 100 µM
- TGI [48]: > 100 µM
- TGI [49]: > 100 µM
- TGI [50]: > 100 µM
- TGI [51]: > 100 µM
- TGI [52]: > 100 µM
- TGI [53]: > 100 µM
- TGI [54]: > 100 µM
- TGI [55]: > 100 µM

Compound: O=c1[nH]/c(=C/c2ccc(OCc3ccccc3)cn2)c(=O)[nH]/c1=C/c1ccc(O)cc1
- TGI [1]: > 63.8 µM
- TGI [2]: 2.87 µM
- TGI [3]: 3.03 µM
- TGI [5]: 3.08 µM
- TGI [6]: 0.59 µM
- TGI [7]: 8.67 µM
- TGI [8]: 3.05 µM
- TGI [9]: > 69.6 µM
- TGI [10]: 7.38 µM
- TGI [11]: > 76.7 µM
- TGI [12]: > 100 µM
- TGI [13]: > 100 µM
- TGI [15]: > 100 µM
- TGI [16]: > 32.4 µM
- TGI [17]: > 100 µM
- TGI [56]: 0.806 µM
- TGI [18]: > 76.3 µM
- TGI [19]: 13.4 µM
- TGI [20]: > 100 µM
- TGI [21]: > 100 µM
- TGI [22]: > 100 µM
- TGI [23]: > 53.5 µM
- TGI [57]: 1.65 µM
- TGI [24]: > 100 µM
- TGI [26]: > 100 µM
- TGI [27]: > 100 µM
- TGI [28]: 2.09 µM
- TGI [29]: > 100 µM
- TGI [30]: > 100 µM
- TGI [31]: 5.21 µM
- TGI [32]: 8.63 µM
- TGI [33]: 20.8 µM
- TGI [34]: > 89.1 µM
- TGI [35]: 8.9 µM
- TGI [36]: 3.78 µM
- TGI [58]: 4.88 µM
- TGI [59]: > 100 µM
- TGI [37]: > 87.9 µM
- TGI [38]: > 100 µM
- TGI [39]: 1.4 µM
- TGI [40]: 1.26 µM
- TGI [41]: > 100 µM
- TGI [42]: 1.45 µM
- TGI [43]: > 100 µM
- TGI [44]: 2.09 µM
- TGI [45]: > 100 µM
- TGI [46]: > 46 µM
- TGI [47]: 10.3 µM
- TGI [48]: 1.64 µM
- TGI [49]: 5.44 µM
- TGI [50]: > 77.6 µM
- TGI [51]: > 100 µM
- TGI [52]: 0.591 µM
- TGI [53]: 9.95 µM
- TGI [54]: > 100 µM
- TGI [55]: > 100 µM
